Ends that are not written are not given here.
Tests used:
[1] = tested on: C57BL/6 mouse trachea and bronchi; test: Plasma protein extravasation (Evans blue dye) after intratracheal instillation; assay type: in vivo; details: C57BL/6 mice; for plasma protein extravasation (PPE) after instillation into the tracheal lumen: i.t. 30 µl, acrolein 5 mM, CSE 1 OD, capsaicin 100 µM, SP 25 nM
Procedure: (§1) To defunctionalize/desensitize TRPV1 expressing primary sensory neurons, resiniferatoxin (RTX) was administered to C57BL/6 mice, as previously described, [40]. Briefly, mice were treated subcutaneously (s.c.) with a single injection of RTX (50 µg/kg) or its vehicle (10% ethanol and 10% tween 80 in isotonic saline) into the scruff of the neck under a light ether anesthesia to avoid unnecessary pain. Experiments were carried out 7 days after RTX treatment when responses to both TRPV1 and TRPA1 agonists in the treated mice were abolished, [40].
Anesthetized (sodium pentobarbital, 50 mg/kg i.p.) C57BL/6 mice received Evans blue dye (30 mg/kg i.v.), 1 min before intratracheal (i.t) instillation (30 µl) of acrolein (5 mM), capsaicin (100 µM), SP (25 nM), CSE (1 OD) or their vehicles (isotonic saline, 1% ethanol in isotonic saline and isotonic saline). […] The tachykinin NK1 receptor antagonist, L-733,060 (2 µmol/kg i.v.; Tocris) or its vehicle were administered 15 min before the stimulus. The TRPV1 selective antagonist, capsazepine, (30 mg/kg i.p.) or its vehicle (2.5% DMSO in isotonic saline) and intragastric (i.g.) TRPA1 selective antagonist, HC-030031 (300 mg/kg i.g.) or its vehicle were administered 30 and 60 min before the stimulus, respectively. In another set of experiments ACR (5 mM, i.t.), or its vehicle, has been administered in C57BL/6 mice desensitized to RTX (50 µg/kg; s.c.). Animals were euthanized 15 min after treatment and transcardially perfused with 0.9% isotonic saline solution. The extravasated dye was extracted from mouse trachea and bronchi by overnight incubation in formamide and assayed by spectrophotometry at 620 nm, as reported previously.

[2] = tested on: C57BL/6 mice, Trpa1+/+ or Trpa1-/- mice; test: KC (CXCL-1) release in bronchoalveolar lavage fluid, ELISA; assay type: in vivo, mouse; details: for KC in BAL 24 hours after intratracheal instillation: i.t. 30 µl, acrolein 5 mM, CSE 1 OD, capsaicin 100 µM, SP 25 nM
Procedure: as §1
Trpa1^+/+ or Trpa1^−/− B6129P mice (5 per group) were exposed acutely to the cigarette smoke (CS) produced with commercial cigarettes (Marlboro Red, 12 mg of tar, 0.9 mg of nicotine each), by using a “nose-only” exposure unit. The smoke produced by cigarette burning was introduced into the exposure chamber (inner volume = 11.61 l) with the airflow generated by a mechanical ventilator (7025 Rodent Ventilator, Ugo Basile) at a rate of 250 ml/min [58]. A second mechanical ventilator was used to provide room air for dilution (1∶8) of the smoke stream. Mice were exposed to the smoke of 5 cigarettes per exposure period, twice daily, for 3 consecutive days, and sacrificed 24 hours later. Genotype-, age-, strain- and sex-matched control animals were exposed to air only in the same manner for the same duration of time. Anesthetized C57BL/6, and Trpa1^+/+ or Trpa1^−/− (C57BL/6) mice were intratracheally administered with (30 µl) acrolein (5 mM), capsaicin (100 µM), SP (25 nM) and CSE (1 OD) or their vehicles (isotonic saline, 1% ethanol in isotonic saline and isotonic saline) and sacrificed 24 hours later. The NK1 receptor antagonist, L-733,060 (2 µmol/kg i.v.; Tocris) or its vehicle (isotonic saline) were administered 15 min before the stimulus, and i.g. HC-030031 (300 mg/kg) or its vehicle (0.5% CMC in isotonic saline 0.9%) were administered 1 hour before the stimulus. In another set of experiments ACR (5 mM, i.t.), or its vehicle, has been administered in C57BL/6 mice desensitized to RTX (50 µg/kg; s.c.). Animals were sacrificed 24 hours after the last exposure/treatment with an overdose of anesthetic followed by exsanguination, and the lungs were lavaged using a cannula inserted into the trachea and instilling 1 ml of Hank's Buffer added with HEPES 10 mM and EDTA 10 mM three times. […] BAL were centrifuged at 200× g at 4°C for 10 min, and the cell-free supernatants were stored at −80°C for cytokine determination. Frozen cell-free BAL was analyzed for keratinocyte chemoattractant (CXCL-1/KC, the murine analogue of IL-8) release by using a commercial ELISA-assay (Invitrogen).

[3] = molecular target: T1, TRPA1 (Homo sapiens, UniProt O75762); test: Calcium imaging (Fura-2) of TRPA1 agonist responses in human airway/lung cells; assay type: cell-based; details: for EC50: intracellular calcium response
T1 construct: cultured human airway cells, including fibroblasts, epithelial and smooth muscle cells express functional TRPA1 channels; endogenous in cells; host or cells: SAEC, NHLF, HBSMC (Lonza, primary); A549, IMR90 (ATCC)
Procedure: Human small airway epithelial cells (SAEC), normal human lung fibroblasts (NHLF) and human bronchial smooth muscle cells (HBSMC) were purchased from Lonza. Human alveolar type II epithelium-like adherent cell line (A549) and human lung embryonic fibroblast (IMR90) were purchased from American Type Culture Collection (Manassas, VA). SAEC and NHLF were cultured respectively in SAGM and FBM medium (Lonza) according to the manufacturer's instructions. IMR90 and HBSMC were cultured in DMEM supplemented with 10% FBS, 2 mM glutamine, 100 U penicillin and 100 µg/ml streptomycin (Sigma-Aldrich), and A549 were cultured in RPMI supplemented with 10% FBS, 2 mM glutamine, 100 U penicillin, 100 µg/ml streptomycin and 1 mM HEPES (Sigma-Aldrich). All cells were cultured in an atmosphere of 95% air and 5% CO2 at 37°C.
CSE was generated as previously reported. Briefly, aqueous CSE was obtained from the combustion of four cigarettes (Marlboro Red, 12 mg of tar, 0.9 mg of nicotine each) bubbled through 50 ml of buffer and subsequently filtered through a 0.2-µm pore filter (Millipore). To ensure reproducibility among different CSE batches, the absorbance (optical density; OD) measured at 320 nm was used as a measure of the “strength” of the extract. Dilutions were made with buffer to obtain the desired absorbance. The CSE was freshly prepared on the day of the experiment and used immediately after preparation.
(§2) For calcium fluorescence measurements, cells were incubated with 5 µM Fura-2AM ester (Alexis Biochemicals) for 40 minutes at 37°C. Intracellular calcium levels were measured and recorded with a dynamic image analysis system (Laboratory Automation 2.0; RC Software). Fluorescence was measured during excitation at 340 and 380 nm, and after correction for the individual background fluorescence signals, the ratio of the fluorescence at both excitation wavelengths (Ratio340/380) was monitored. Experiments were performed using buffer solution containing (in mM): 150 NaCl, 6 KCl, 1 MgCl2, 1.5 CaCl2, 10 glucose, 10 HEPES at pH 7.4. Cells were stimulated with cinnamaldehyde (0.1–3000 µM), acrolein (0.1–3000 µM), CSE (0.001–0.5 OD), capsaicin (1 µM) and the activating peptide (SLIGKV-NH2) of the human PAR-2 receptor (hPAR-2 AP; 100 µM), or their respective vehicles (0.3% DMSO,aqueous buffer or 1% ethanol). HC-030031 and AP18 vehicles (used in all the in vitro experiments) were 3% DMSO and 1% DMSO, respectively. Results are expressed as the increase of Ratio340/380 over the baseline normalized to the maximum effect induced by ionomycin (5 µM) added at the end of the experiment.

[4] = molecular target: T2, PAR-2 receptor (Homo sapiens, UniProt P55085); test: Calcium imaging, response to the PAR-2 activating peptide (selectivity control); assay type: cell-based; details: PAR-2 AP 100 µM; antagonist 10 µM
T2 construct: endogenous in cells
T2 sequence (P55085 26-397): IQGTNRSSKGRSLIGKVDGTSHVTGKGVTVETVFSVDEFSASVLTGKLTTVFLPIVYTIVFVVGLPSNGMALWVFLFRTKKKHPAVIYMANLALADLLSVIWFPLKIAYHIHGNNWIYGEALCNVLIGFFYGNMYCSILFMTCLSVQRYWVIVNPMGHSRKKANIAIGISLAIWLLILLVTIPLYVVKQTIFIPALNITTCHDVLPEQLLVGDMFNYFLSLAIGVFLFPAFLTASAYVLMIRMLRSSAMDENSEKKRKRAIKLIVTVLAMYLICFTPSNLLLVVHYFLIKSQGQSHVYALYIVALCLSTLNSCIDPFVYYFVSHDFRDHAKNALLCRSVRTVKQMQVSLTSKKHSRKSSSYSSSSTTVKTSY
Procedure: as §2

[5] = tested on: IL-8 release from SAEC, NHLF and HBSMC; test: IL-8 release from human airway/lung cells in primary culture, ELISA; assay type: cell-based
Procedure: For IL-8 ELISA assays, HBSMC, SAEC, and NHLF were seeded in complete culture medium in 48-well plates, grown to ∼80–90% confluence, and incubated overnight in serum-free medium before treatments. All the treatments were performed in serum free medium. Cells were pretreated with the selective TRPA1 antagonists, HC-030031 and AP18, or their vehicles, for 30–60 min before treatment with freshly prepared acrolein, CSE, TNF-α and IL-1β for 18 hours at 37°C with 5% CO2. Subsequently, supernatants were collected and stored at −80°C for ELISA assay. Human IL-8 was measured using a paired antibody quantitative ELISA kit (Invitrogen) (detection limit: 5 pg/ml). The assays were performed according to the manufacturer's instructions. Vitality assay method (MTT reduction assay) is available online as (Text S1).

T1 sequence (O75762 whole entry): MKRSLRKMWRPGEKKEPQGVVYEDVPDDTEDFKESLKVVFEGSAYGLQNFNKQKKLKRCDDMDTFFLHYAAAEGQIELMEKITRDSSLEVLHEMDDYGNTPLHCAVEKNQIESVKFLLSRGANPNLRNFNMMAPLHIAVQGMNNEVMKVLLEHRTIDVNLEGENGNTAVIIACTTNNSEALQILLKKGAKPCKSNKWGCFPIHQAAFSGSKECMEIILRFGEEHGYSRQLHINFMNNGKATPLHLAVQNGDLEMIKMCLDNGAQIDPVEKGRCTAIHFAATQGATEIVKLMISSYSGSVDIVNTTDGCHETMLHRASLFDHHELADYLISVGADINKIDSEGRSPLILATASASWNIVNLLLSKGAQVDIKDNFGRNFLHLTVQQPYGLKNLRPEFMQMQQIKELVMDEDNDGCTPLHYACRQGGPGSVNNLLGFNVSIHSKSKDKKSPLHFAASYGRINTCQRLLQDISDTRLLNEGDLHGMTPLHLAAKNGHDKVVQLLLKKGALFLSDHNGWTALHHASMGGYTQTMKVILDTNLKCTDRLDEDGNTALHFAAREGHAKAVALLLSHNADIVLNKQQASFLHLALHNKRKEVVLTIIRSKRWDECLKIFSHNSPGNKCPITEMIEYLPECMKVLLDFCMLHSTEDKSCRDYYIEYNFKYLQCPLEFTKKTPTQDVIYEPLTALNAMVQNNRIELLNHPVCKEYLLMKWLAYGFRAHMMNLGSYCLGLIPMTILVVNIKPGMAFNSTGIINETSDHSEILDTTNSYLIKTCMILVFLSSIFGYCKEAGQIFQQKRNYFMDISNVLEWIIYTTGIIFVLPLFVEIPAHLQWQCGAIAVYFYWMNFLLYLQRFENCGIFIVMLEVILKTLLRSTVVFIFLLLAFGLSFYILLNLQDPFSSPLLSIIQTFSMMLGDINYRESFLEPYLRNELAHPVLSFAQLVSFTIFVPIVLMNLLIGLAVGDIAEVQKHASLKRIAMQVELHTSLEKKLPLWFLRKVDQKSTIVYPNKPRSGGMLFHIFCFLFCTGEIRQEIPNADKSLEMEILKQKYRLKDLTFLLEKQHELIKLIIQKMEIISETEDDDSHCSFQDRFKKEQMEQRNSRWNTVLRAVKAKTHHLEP

## substance P (RPKPQQFFGLM-NH2; ends and bridges not checked; UniProt P20366 58-68, looked up) [SP, neuropeptide tachykinin released from sensory nerve terminals]
[1]
  plasma protein extravasation (PPE) after instillation into the tracheal lumen: increased PPE
[2]; C57BL/6 mice
  KC in BAL 24 hours after intratracheal instillation: failed to increase

## CC(C)c1ccc(NC(=O)Cn2cnc3c2c(=O)n(C)c(=O)n3C)cc1 [HC-030031]
[3]; A549 and IMR90, antagonist 10 µM
  effect of antagonist on calcium response evoked by CNM, ACR or CSE: abolished
[3]; SAEC, NHLF, HBSMC, antagonist 10 µM
  effect of antagonist on calcium responses to CNM, ACR and CSE: prevented
[4]
  effect of antagonist on calcium response to the PAR-2 activating peptide: did not affect
[1]; L-733,060 2 µmol/kg i.v., CPZ 30 mg/kg i.p., HC 300 mg/kg i.g.
  effect on acrolein (5 mM, i.t.)- and CSE (1 OD, i.t.)-evoked increase in PPE: prevent
[2]; HC-030031 300 mg/kg i.g., L-733,060 2 µmol/kg i.v., C57BL/6 mice
  effect of pretreatment on KC release evoked by acrolein or CSE: significantly reduced
[5]; HC-030031 30 µM, AP18 10 µM
  effect of antagonist on CSE-evoked IL-8 release: reduced
  effect of antagonist on IL-8 release induced by IL-1β or TNF-α: not affected
  effect of antagonist on acrolein-evoked IL-8 release: significantly reduced

## C=C(C)[C@]12C[C@@H](C)[C@@]34O[C@](Cc5ccccc5)(O[C@@H]1[C@@H]3C=C(COC(=O)Cc1ccc(O)c(OC)c1)C[C@]1(O)C(=O)C(C)=C[C@@H]41)O2 [RTX, resiniferatoxin]
[1]; RTX 50 µg/kg s.c., 7 days before, ACR 5 mM i.t.
  acrolein-induced PPE after desensitization: completely abolished
[2]; RTX 50 µg/kg s.c., 7 days before, ACR 5 mM i.t., C57BL/6 mice
  acrolein-induced increase in KC in BAL fluid after desensitization: remained unchanged

## Oc1cc2c(cc1O)CN(C(=S)NCCc1ccc(Cl)cc1)CCC2 [capsazepine]
[1]; L-733,060 2 µmol/kg i.v., capsazepine 30 mg/kg i.p., HC-030031 300 mg/kg i.g.
  effect on SP (25 nM)- and capsaicin (100 µM)-evoked Evans blue dye extravasation (PPE): prevented

## C=CC=O [Acrolein, acrolein]
[3]; A549
  EC50: 7.3 µM
[3]; HBSMC
  EC50: 6.3 µM
[3]; IMR90
  EC50: 2.9 µM
[3]; NHLF
  EC50: 4.4 µM
[3]; SAEC
  EC50: 56.9 µM
[1]
  plasma protein extravasation (PPE) after instillation into the tracheal lumen: increased PPE
[2]; 5 mM i.t., Trpa1-/- mice (C57BL/6)
  KC release in Trpa1-/- mice: completely absent
[2]; C57BL/6 mice
  KC in BAL 24 hours after intratracheal instillation: significantly increased
[5]; overnight exposure
  IL-8 release: concentration-dependent IL-8 release

Source: publication PMC3419223, “Transient Receptor Potential Ankyrin 1 Channel Localized to Non-Neuronal Airway Cells Promotes Non-Neurogenic Inflammation” (PLoS ONE, 2012)
